Test results reported in ChEMBL document CHEMBL1177823, “7',8'-Dihydroobolactone, a typanocidal alpha-pyrone from the rainforest tree Cryptocarya obovata” (Bioorg Med Chem Lett, 2010).

Assays:
[1] = test system: Trypanosoma brucei brucei; test: Antitrypanosomal activity against Trypanosoma brucei brucei; format: functional, organism-based
[2] = Selectivity index, ratio of IC50 for HEK293 cells to IC50 for Trypanosoma brucei brucei; format: toxicity, cell-based; conditions: human, HEK293 cells versus Trypanosoma brucei brucei; read-out: Selectivity Index
A549 = test: Cytotoxicity against human A549 cells after 72 hrs by Alamar blue assay; format: functional, cell-based; conditions: A549, 72 h
HEK293 = test: Cytotoxicity against […] cells after 72 hrs by Alamar blue assay; format: cell-based; conditions: Homo sapiens, HEK293, 72 h
HeLa = test: Cytotoxicity against human HeLa cells after 72 hrs by Alamar blue assay; format: functional, cell-based
MCF7 = test: Cytotoxicity against human MCF7 cells after 72 hrs by Alamar blue assay; format: functional, cell-based; conditions: MCF7, 72 h
[3] = Cytotoxicity against […] cells at 70 uM after 72 hrs by Alamar blue assay; format: cell-based; conditions: human, HEK293 cells; read-out: INH
[4] = test system: Trypanosoma brucei brucei; test: Antitrypanosomal activity against Trypanosoma brucei brucei at 167 uM; format: functional

| SMILES | IC50 [1] | selectivity ratio [2] | IC50 (A549) | IC50 (HEK293) | IC50 (HeLa) | IC50 (MCF7) | cytotoxicity at 72 h, 70 µM [3] | inhibition at 167 µM [4] |
| --- | --- | --- | --- | --- | --- | --- | --- | --- |
| O=C1C=C(CCc2ccccc2)O[C@H](C[C@H]2CC=CC(=O)O2)C1 | 2.8 µM | 7.4 | 78 µM | 20.4 µM | 43 µM |  |  |  |
| N=C(N)c1ccc(/N=N/Nc2ccc(C(=N)N)cc2)cc1 [DIMINAZENE] | 0.025 µM |  |  | > 80 µM |  |  |  |  |
| O=C1C=C(/C=C/c2ccccc2)O[C@H](C[C@H]2CC=CC(=O)O2)C1 [OBOLACTONE] | 5.3 µM | 2.5 | 43 µM | 13.2 µM | 24 µM | 32 µM |  |  |
| O=c1ccc2cc3ccoc3cc2o1 [PSORALEN] |  |  |  | > 167 µM |  |  |  | 50.3% |

More lines, main results first:

| IC50 [1] | SMILES | selectivity ratio [2] | IC50 (A549) | IC50 (HEK293) | IC50 (HeLa) | IC50 (MCF7) | cytotoxicity at 72 h, 70 µM [3] | inhibition at 167 µM [4] |
| --- | --- | --- | --- | --- | --- | --- | --- | --- |
| 0.007 µM | N=C(N)c1ccc(OCCCCCOc2ccc(C(=N)N)cc2)cc1 [PENTAMIDINE] |  |  |  |  |  | 58.3% |  |
| 0.037 µM | COc1ccc(C[C@H](N)C(=O)N[C@H]2[C@@H](O)[C@H](n3cnc4c(N(C)C)ncnc43)O[C@@H]2CO)cc1 [PUROMYCIN] |  |  | 0.42 µM |  |  |  |  |
